This test has as its system 3T3-L1 cells. The test can be described thus: Induction of adipocyte differentiation (amount of triglyceride biosynthesis). The format is cell-based. As to conditions: Mus musculus. The method, then:
Induction of adipocyte differentiation was carried out by partially modifying the above-mentioned method of Rubin C. S. et al. In addition, as a test compound, a compound prepared in Examples mentioned above or a commercially available compound was used. 3T3-L1 cells (ATCC CCL-92.1) were suspended in a 10% fetal bovine serum (manufactured by Bio Whittaker)-containing Dulbecco's modified Eagle's medium (manufactured by Sigma, D6046) containing 200 μM ascorbic acid so as to have a density of 4×10^3 cells/mL, and the suspension was put in each well of a 12-well microtiter plate in an amount of 2 ml per well. The cells were cultured at 37° C. for 7 days in the presence of 5% carbon dioxide gas. On the seventh day, the medium was exchanged with a 10% fetal bovine serum (manufactured by Bio Whittaker)-containing Dulbecco's modified Eagle's medium containing 200 μM ascorbic acid and 0.25 μM dexamethasone, and a test compound dissolved in dimethyl sulfoxide in a concentration shown in each of Tables 16 to 19 was added to each well. Here, there were set a group with addition of 4 μL of an aqueous solution containing 5 mg/mL insulin (manufactured by TAKARA BIO INC.) as a positive control, and a group with addition of dimethyl sulfoxide as a negative control. After 45 hours, the medium was exchanged with a 10% fetal bovine serum-containing Dulbecco's modified Eagle's medium containing 200 μM ascorbic acid. A test compound, 2 μL of an aqueous solution containing 5 mg/mL insulin as a positive control, or dimethyl sulfoxide as a negative control was put to each well in the same concentration. The cells were cultured for additional 7 days. In addition, the medium was exchanged on after 2 days and after 5 days, and at that time, a test compound, 2 μL of an aqueous solution containing 5 mg/mL insulin as a positive control, or dimethyl sulfoxide as a negative control was put to each well in the same concentration.
The amount of triglyceride in the adipocytes was determined as an index of induction of differentiation into mature adipocytes, and also, as the evaluation of insulin-mimetic action.
After the termination of the culture, the medium was removed, and the cells were washed twice with a phosphate buffered saline. One milliliter of a solvent of hexane:isopropanol=3:2 was added to the cells. The mixture was allowed to stand at room temperature for 30 minutes, and thereafter the supernatant was collected. The procedures were repeated again, and 2 mL of the supernatant was concentrated to dryness. The precipitate was dissolved in 100 μL of isopropanol, and the amount of triglyceride contained in 10 μL of the solution was determined using a triglyceride E-test (manufactured by Wako Pure Chemical Industries, Ltd., code 432-40201). In addition, all the determinations were carried out twice. The action for induction of differentiation was calculated by the following calculation formula, and shown by four ranks of +++, ++, + and +/−. • S: Amount of triglyceride in the presence of a test compound; • N: Amount of triglyceride in the negative control; and • P: Amount of triglyceride in the positive control; X=(S−N)/(P−N) (Judgment of Action for Induction of Differentiation)

Setting [1] is: 3T3-L1, 3 μM, X=(S−N)/(P−N) of amount of triglyceride, P=insulin positive control, read-out: Action for Induction of Differentiation.
Where [2] appears, read: 3T3-L1, 10 μM, X=(S−N)/(P−N) of amount of triglyceride, P=insulin positive control, read-out: Action for Induction of Differentiation.
Setting [3] is: 3T3-L1, 30 μM, X=(S−N)/(P−N) of amount of triglyceride, P=insulin positive control, read-out: Action for Induction of Differentiation.
[4] abbreviates: 3T3-L1, 13 μM, X=(S−N)/(P−N) of amount of triglyceride, P=insulin positive control, read-out: Action for Induction of Differentiation.
Setting [5] is: 3T3-L1, read-out: Action for Induction of Differentiation.

The record followed here is US20070092551A1, “Therapeutic agent” (TAKARA BIO INC., priority 2003, published 2007).

SMILES strings stand for the structures. Read-outs that look alike come from different tables or passages of the source. Where only a bound is given, the exact number is not on record here.

With `CC(C)=CCC/C(C)=C/COc1ccc([C@@H]2CC(=O)c3c(O)cc(O)cc3O2)cc1` [4′-O-Geranylnaringenin], the activation at 3 µM under setting [1] lay within 30 to 60%. Under setting [2], the activation at 10 µM is 60 to 100%. Under setting [3], the activation at 30 µM was > 100%.
On to `COc1ccc(C(C)=O)c(O)c1C` [Compound (C022), 2′-hydroxy-3′-methyl-4′-methoxyacetophenone], for which, under setting [4], the activation at 13 µM fell in the range of 15 to 30%.
Take `COc1ccc(C(=O)/C=C/c2ccc(O)cc2)c(O)c1C` [Compound (C023), 4,2′-dihydroxy-3′-methyl-4′-methoxychalcone]: the activation at 4 µM (3T3-L1, 4 μM, X=(S−N)/(P−N) of amount of triglyceride, P=insulin positive control, read-out: Action for Induction of Differentiation) was 60 to 100%. Moreover, the activation at 13 µM under setting [4] lay within 60 to 100%.
Consider `COc1ccc2c(c1CC=C(C)C)OC(c1ccc(O)cc1)CC2=O` (stereo not shown) [Compound (C034), 7-methoxy-8-prenyl-4′-hydroxyflavanone], for which the activation at 3 µM under setting [1] was > 100%. Besides, the activation at 10 µM under setting [2] was > 100%.
With `CC(=O)c1ccc(O)c(C/C=C(\C)CCC=C(C)C)c1O` [Compound (C036), 2′,4′-dihydroxy-3′-geranylacetophenone], the activation at 3 µM under setting [1] lay in the range of 15 to 30%. Also, the activation at 10 µM under setting [2] fell in the range of 60 to 100%.
With `CC(=O)c1ccc(O)c(C/C=C(\C)CC/C=C(\C)CCC=C(C)C)c1O` [Compound (C051), 2′,4′-dihydroxy-3′-farnesylacetophenone], the activation at 30 µM under setting [3] fell in the range of 60 to 100%.
For the compound `CC(=O)c1ccc(O)c(Cc2ccccc2)c1O` [Compound (C054), 2′,4′-dihydroxy-3′-benzylacetophenone], the activation at 3 µM under setting [1] lay in the range of 15 to 30%. The activation at 10 µM under setting [2] was 30 to 60%.
As to `COc1ccc(C=O)c(O)c1CC=C(C)C` [Compound (C063), 2-hydroxy-3-prenyl-4-methoxybenzaldehyde], the activation at 3 µM under setting [1] was 30 to 60%. Also, the activation at 10 µM under setting [2] fell in the range of 60 to 100%. Further, the activation at 30 µM under setting [3] was > 100%.
In the case of `CC(=O)c1ccccc1OCc1ccccc1` [Compound (C065), 2′-benzyloxyacetophenone], under setting [5], the activation at 3 µM lay within 30 to 60%, the activation at 10 µM fell in the range of 60 to 100% and the activation at 30 µM was > 100%.
As for `COc1ccc(C(=O)/C=C/C=C(C)C)c(O)c1CC=C(C)C` [Compound (C069), 1-(2-hydroxy-3-prenyl-4-methoxyphenyl)-5-methyl-2,4-hexadien-1-one], the activation at 3 µM under setting [1] lay in the range of 30 to 60%. Also, the activation at 10 µM under setting [2] is > 100%. The activation at 30 µM under setting [3] is > 100%.
Turning to `CC(=O)c1ccc(OCc2ccccc2)c(C/C=C(\C)CCC=C(C)C)c1O` [Compound (C070), 2′-hydroxy-3′-geranyl-4′-benzyloxyacetophenone], the activation at 10 µM under setting [2] fell in the range of 30 to 60%. In addition, under setting [3], the activation at 30 µM is 60 to 100%.
For the compound `COc1ccc(C(=O)/C=C/c2ccc(O)cc2)c(O)c1C/C=C(\C)C/C=C/C(C)(C)O` [Compound (C081), 1-[2-hydroxy-3-(7-hydroxy-3,7-dimethyl-2,5-octadienyl)-4-methoxyphenyl]-3-(4-hydroxyphenyl)-2-propen-1-one], the activation at 3 µM under setting [1] lay within 60 to 100%. The activation at 10 µM under setting [2] was > 100%. Moreover, the activation at 30 µM under setting [3] was > 100%.
As for `COc1ccc2c(c1C/C=C(\C)CCC=C(C)C)OC(c1ccc(O)cc1)CC2=O` (stereo not shown) [Compound (C082), 8-geranyl-4′-hydroxy-7-methoxyflavanone], under setting [2], the activation at 10 µM was in the range of 60 to 100%.
As for `COc1ccc(C(=O)/C=C/c2cccs2)c(O)c1CC=C(C)C` [Compound (C-THP), 1-(2-hydroxy-4-methoxy-3-prenylphenyl)-3-(2-thienyl)-2-propen-1-one], where the note is “3T3-L1, 1 μM, X=(S−N)/(P−N) of amount of triglyceride, P=insulin positive control, read-out: Action for Induction of Differentiation”, the activation at 1 µM is 15 to 30%. Moreover, under setting [1], the activation at 3 µM lay in the range of 60 to 100%. The activation at 10 µM under setting [2] was > 100%.
`CC(C)=CCC/C(C)=C/Cc1c(O)ccc2c1OC(c1ccc(O)cc1)CC2=O` (stereo not shown) [Prostratol F]: under setting [1], the activation at 3 µM lay within 60 to 100%. Moreover, the activation at 10 µM under setting [2] lay within 60 to 100%.
Consider `CC12CCC(O)C(C)(C)C1Cc1c(O)ccc(C(=O)/C=C/c3ccc(O)cc3)c1O2` (stereo not shown) [TB1, 1-(5,6,7,8,8a,10a-hexahydro-1,7-dihydroxy-8,8,10a-trimethyl-9H-xanthen-4-yl)-3-(4-hydroxyphenyl)-2-propen-1-one], for which the activation at 3 µM under setting [1] was > 100%. Also, the activation at 10 µM under setting [2] lay in the range of 60 to 100%.
For the compound `CC(C)=CCCC1(C)Oc2c(C(=O)/C=C/c3ccc(O)cc3)ccc(O)c2CC1O` (stereo not shown) [TB2, 1-(3,4-dihydro-3,5-dihydroxy-2-(3-isohexenyl)-2-methyl-2H-benzopyran-8-yl)-3-(4-hydroxyphenyl)-2-propen-1-one], the activation at 3 µM under setting [1] is > 100%. In addition, the activation at 10 µM under setting [2] was > 100%.
Turning to `COc1ccc(C(=O)/C=C/c2ccc(O)cc2)c2c1CC(C(C)(C)O)O2` (stereo not shown) [TB4, 1-[2,3-dihydro-2-(1-hydroxy-1-methylethyl)-4-methoxy-benzofuran-7-yl]-3-(4-hydroxyphenyl)-2-propen-1-one], the activation at 3 µM under setting [1] lay within 30 to 60%. The activation at 10 µM under setting [2] lay within 30 to 60%.
As for `C/C(=C\Cc1c(O)ccc(C(=O)/C=C/c2ccc(O)cc2)c1O)CCC(O)C(C)(C)O` (stereo not shown) [TB5, 1-[2,4-dihydroxy-3-(6,7-dihydroxy-3,7-dimethyl-2-octenyl)phenyl]-3-(4-hydroxyphenyl)-2-propen-1-one], under setting [1], the activation at 3 µM is > 100%. In addition, the activation at 10 µM under setting [2] was > 100%.
As to `C=C(C)C(O)CC/C(C)=C/Cc1c(OC)ccc(C(=O)/C=C/c2ccc(O)cc2)c1O` (stereo not shown) [Xanthoangelol G], the activation at 3 µM under setting [1] is 30 to 60%. Further, the activation at 10 µM under setting [2] is > 100%. Further, the activation at 30 µM under setting [3] was > 100%.
As for `COc1c2occc2cc2ccc(=O)oc12` [Xanthotoxin], under setting [5], the activation at 13 µM was in the range of 30 to 60% and the activation at 40 µM is 60 to 100%.
